This note sets out measurements from patent EP2435019B1, “DODECA-2E,4E-DIENE AMIDES AND THEIR USE AS MEDICAMENTS AND COSMETICS” (Dr. August Wolff GmbH & Co. KG Arzneimittel, priority 2009, dated 2010).

Molecules are shown by their SMILES. Like-named read-outs stand apart in the source and are kept apart here.

One data set deals with T1, CB1 (Homo sapiens, UniProt P21554).
T1 construct: purchased Perkin Elmer RBHCB1M
The data set can be described thus: Radioligand displacement assay on CB1 receptor. The class given is binding. The settings on record: for affinity towards CB1 (in words): summary of Table 3. The method, then:
(§1) For the CB1 receptor, binding experiments were performed in the presence of 0.39 nM of the radioligand [^3H]CP55,940 (168 Ci/mmol) (Perkin Elmer, Waltham, MA, US) at 30°C in siliconized glass vials together with 7.16 µg of membrane recombinantly over-expressing CB1 (No. RBHCB1M, Perkin Elmer, Waltham, MA, US), which was resuspended in 0.2 mL (final volume) binding-buffer (50 mM TRIS-HCl, 2.5 mM EGTA, 5 mM MgCl2, 0.5 mg/mL fatty acid free BSA, pH 7.4). Test compounds were present at varying concentrations and the nonspecific binding of the radioligand was determined in the presence of 10 µM CP55,940 (Tocris Cookson Ltd., Bristol, UK). After 1.5 h incubation, the suspension was rapidly filtered through 0.05% polyethylenimine pre-soaked GF/C glass fiber filters on a 96-well cell harvester and washed nine times with 0.5 mL ice-cold washing-buffer (50 mM TRIS-HCl, 2.5 mM EGTA, 5 mM MgCl2, 2% BSA, pH 7.4). Radioactivity on filters was measured with a Beckman LS 6500 scintillation counter in 3 mL Ultima Gold scintillation liquid (Perkin Elmer, Waltham, MA, US). Data collected from three independent experiments performed in triplicates were normalized between 100% and 0% specific binding for [^3H]CP55,940. […] Derived from the dissociation constant (KD) of [^3H]CP55,940 and the concentration-dependent displacement (IC50 value), inhibition constants (Ki) of competitor compounds were calculated using the Cheng-Prusoff equation [Ki = IC50/(1+ L/KD)].

Data set [1] is described as follows: Critical micelle concentration (CMC) measurement, dye micellization. The class given is physicochemical. Particulars: fluorescein dye micellization in water, pH 6.9, room temperature. The method, then: Dye micellization was carried out with a modified version of the method described by Eliyahu et al., Novel dextran-spermine conjugates as transfecting agents: comparing water-soluble and micellar polymers. […] Experiments were carried out on 96-well microtiter plates (excitation at 485 nm, emission at 535 nm). Since the emission of fluorescein is pH-dependent, the pH of the mixture was kept constant at 6.9. The CMC range was determined as the concentration range where the first statistically significant increase in fluorescence was detected.

Another data set deals with T2, FAAH (Sus scrofa, UniProt Q9TUI8).
T2 construct: 165 µl of diluted pig brain homogenate; from tissue; host or cells: pig brain homogenate
T2 sequence (Q9TUI8 1-579): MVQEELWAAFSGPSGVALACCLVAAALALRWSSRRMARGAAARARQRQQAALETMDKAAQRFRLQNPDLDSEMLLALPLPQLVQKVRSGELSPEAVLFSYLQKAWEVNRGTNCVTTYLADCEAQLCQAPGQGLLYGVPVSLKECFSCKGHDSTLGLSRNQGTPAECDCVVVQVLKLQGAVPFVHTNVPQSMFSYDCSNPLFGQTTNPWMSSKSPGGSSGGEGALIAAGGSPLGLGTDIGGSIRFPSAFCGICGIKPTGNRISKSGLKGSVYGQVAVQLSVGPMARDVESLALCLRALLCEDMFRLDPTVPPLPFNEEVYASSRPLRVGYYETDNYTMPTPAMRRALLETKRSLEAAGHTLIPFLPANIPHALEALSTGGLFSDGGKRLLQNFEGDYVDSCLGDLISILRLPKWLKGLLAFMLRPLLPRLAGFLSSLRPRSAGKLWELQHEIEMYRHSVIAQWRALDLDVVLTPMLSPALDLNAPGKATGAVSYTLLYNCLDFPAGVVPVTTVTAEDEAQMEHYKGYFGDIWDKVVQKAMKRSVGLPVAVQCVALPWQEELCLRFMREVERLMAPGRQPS
The data set can be described thus: Fatty acid amide hydrolase (FAAH) inhibition, pig brain homogenate (assay D). The format is biochemical. Particulars: 1 µM; pig brain homogenate (assay D). The method, then: FAAH activity was assessed using pig brain homogenate according to the method described by Omeir et al., Arachidonoyl ethanolamide-[1,2-14C] as a substrate for anandamide amidase. Life Sci. 1995;56(23-24):1999-2005, and adapted by Fowler et al., Ibuprofen inhibits rat brain deamidation of anandamide at pharmacologically relevant concentrations. Mode of inhibition and structure-activity relationship. J Pharmacol Exp Ther. 1997 Nov;283(2):729-34. Briefly, 10 µl of test compounds at the adequate concentration or solvent were incubated at 37°C for 20 min with 165 µl of diluted pig brain homogenate in 10 mM Tris-HCl and 1 mM EDTA, pH 7.6 (corresponding to 100 µg/ml of total protein), 1% w/v fatty acid free BSA (Sigma, San Louis, MO, US) and 25 µl of a mixture 1:1 of nonradioactive AEA [^3H]-AEA (60 Ci mmol^-1) (concentration in the assay was 2 µM). Successively, 400 µl of a mixture 1:1 (v/v) of methanol:chloroform was added at each sample and, after vigorous vortexing, aqueous and organic phases were separated by centrifugation at 10000 rpm for 10 min. The radioactivity associated to the [^3H]-ethanolamine (produced by FAAH-catalysed breakdown of [^3H]-AEA) was measured upon addition of 3 ml of Ultima Gold scintillation liquid (Perkin Elmer, Waltham, MA, US) to 200 µl of the aqueous (upper) phase, using a Beckman LS6500 scintillation counter. Results were expressed as % of FAAH activity vs. pig brain homogenate treated only with solvent.

The subject of data set [2] is Arachidonoylethanolamide Transport (AEAT). The data set can be described thus: Cellular uptake of [3H]-AEA in U937 cells (assay C). The class given is cell-based. Particulars: Homo sapiens, U-937; [3H]-AEA uptake, assay C (Tables 2 and 3).
For another data set, the target named is CB2 (Homo sapiens, UniProt P34972). The data set can be described thus: Radioligand displacement assay on CB2 receptor. The class given is binding. Also noted: purchased Perkin Elmer RBXCB2M. The settings on record: for affinity towards CB2 (in words): summary of Table 3. The method, then:
as §1
For CB2-receptor binding studies 3.8 µg of membrane recombinantly over-expressing CB2 (No. RBXCB2M, Perkin Elmer, Waltham, MA, US) were resuspended in 0.6 mL binding buffer (see above) together with 0.11 nM of the radioligand [^3H]CP55,940. The CB2-binding assay was conducted in the same manner as for CB1.

Another data set deals with IL-8. The data set can be described thus: Induced chemokine IL-8 in HaCaT keratinocytes. The class given is cell-based, human. Particulars: Figure 6, 5 µM, tolerogen 10 µg/ml, 6h. As to the method: • Figure 1: AEA re-uptake inhibition of 2E,4E-dieneamides 1 and 9 into human primary monocytes and U937 cells. […] Data are mean values ± SEM of 3 independent experiments in a sigmoidal dose-response curve. • Figure 2: Concentration-dependent effects of 4 and 5 on FAAH activity. […] The maximal inhibition (32%) of 5 was measured at 1 µM. Data are mean values ± SEM of 3 independent experiments. • Figure 3: Effects of low nM concentrations of N-alkylamide 7 on FAAH activity alone and in combination with the FAAH inhibitor URB597. […] Data are mean values ± SEM of 3 independent experiments. • Figure 4: 1 and 9 inhibit LPS-induced TNF-alpha release into culture medium (measured by ELISA). Human macrophages (10^6 cells) were stimulated with LPS (500 ng/ml) and treated with UCM707 and/or compounds 1 and 9 at 5 µM for 18 h. N = 3 ± SEM. • Figure 5: UCM707 (positive control) and compounds 1 and 9 diminish NO2^- production. Human macrophages (10^6 cells) were stimulated with LPS (500 ng/ml) and treated with UCM707 and/or compounds 1 and 9 at 5 µM for 18 h. Culture supernatants were assayed for nitrite levels, using the Griess reagent as a reflection of NO production. Results are the mean ± SEM of four independent experiments performed in duplicate • Figure 6: In CB receptor expressing human HaCaT keratinocytes (10^6 cells) UCM707 (control) 1 and 9 like the endocannabinoid anandamide (each 5 µM) inhibited tolerogen (10 µg/ml) induced chemokine IL-8 (6h stimulation and incubation). N = 3 ± SEM.

Setting [3] is: displacement of 0.39 nM [3H]CP55,940, membrane recombinantly over-expressing CB1, read-out: Receptor affinity Ki CB1.
The mark [4] stands for this setting: displacement of 0.11 nM [3H]CP55,940, membrane recombinantly over-expressing CB2, read-out: Receptor affinity Ki CB2.

T1 sequence (P21554 whole entry): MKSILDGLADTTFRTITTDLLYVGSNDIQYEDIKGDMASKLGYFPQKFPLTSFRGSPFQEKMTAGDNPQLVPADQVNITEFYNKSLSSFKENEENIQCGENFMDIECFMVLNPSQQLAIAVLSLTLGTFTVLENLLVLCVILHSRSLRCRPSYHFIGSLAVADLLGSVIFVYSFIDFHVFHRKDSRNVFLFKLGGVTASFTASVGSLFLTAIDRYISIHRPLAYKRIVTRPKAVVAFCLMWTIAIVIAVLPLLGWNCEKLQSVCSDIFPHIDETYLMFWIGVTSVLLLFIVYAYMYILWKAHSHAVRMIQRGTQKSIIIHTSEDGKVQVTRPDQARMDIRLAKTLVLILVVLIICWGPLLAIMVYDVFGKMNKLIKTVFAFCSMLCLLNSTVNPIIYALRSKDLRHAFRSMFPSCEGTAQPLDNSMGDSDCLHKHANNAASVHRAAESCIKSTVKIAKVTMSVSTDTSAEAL
Sequence of CB2 (P34972 whole entry): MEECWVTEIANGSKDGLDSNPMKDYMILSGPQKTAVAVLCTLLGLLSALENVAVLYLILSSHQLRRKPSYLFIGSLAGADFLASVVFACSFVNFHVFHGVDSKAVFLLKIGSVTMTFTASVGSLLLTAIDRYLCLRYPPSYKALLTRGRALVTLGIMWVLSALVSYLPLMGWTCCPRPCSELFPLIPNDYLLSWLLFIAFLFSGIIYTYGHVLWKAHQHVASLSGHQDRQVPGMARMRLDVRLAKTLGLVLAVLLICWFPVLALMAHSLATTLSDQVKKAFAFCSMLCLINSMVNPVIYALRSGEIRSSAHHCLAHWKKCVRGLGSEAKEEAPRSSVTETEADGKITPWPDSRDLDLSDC

Regarding `CCCCCCC/C=C/C=C/C(=O)NCC(C)CC` (racemic) [Compound B, (2E,4E)-N-(2-methylbutyl)dodeca-2,4-diene amide], on CB1, the Ki was found to be 1.51 ± 0.214 µM and the “affinity towards CB1 (in words)” value is “moderate affinity”. This compound also displayed a CMC in data set [1] of more than 5 µM. Also, the “FAAH inhibition at 1 µM” value at FAAH is recorded as <10 % of control. For the same compound, the EC50 in data set [2] is more than 10 µM. Further, on CB2, the Ki is 1.1 ± 0.084 µM and the “affinity towards CB2 (in words)” value was “moderate affinity”.

Regarding `CCCCCCC/C=C/C=C/C(=O)NCCC(C)C` [Compound C, (2E,4E)-N-isopentyldodeca-2,4-diene amide], on CB1, the Ki is more than 20 µM and the “affinity towards CB1 (in words)” value is “no affinity”. The compound also yielded a CMC in data set [1] of more than 5 µM. The “FAAH inhibition at 1 µM” value at FAAH is given as <10 % of control. This compound also registered an EC50 in data set [2] of more than 10 µM. Further, at CB2, the affinity, expressed as Ki, was 1.455 ± 0.014 µM and the “affinity towards CB2 (in words)” value is “moderate affinity”.

Take `CCCCCCC/C=C/C=C/C(=O)N1CCCC1` [Compound D, (2E,4E)-1-(pyrrolidin-1-yl)dodeca-2,4-dien-1-one]: the Ki on CB1 (setting [3]) was more than 20 µM; on CB2 (setting [4]) it was less than 10 µM. The CMC in data set [1] is given as more than 5 µM. Besides, the “FAAH inhibition at 1 µM” value on FAAH is given as <10 % of control. In data set [2], this compound came in with an EC50 of more than 10 µM.

Take `CCCCCCC/C=C/C=C/C(=O)N1CCCCC1` [Compound E, (2E,4E)-1-(piperidin-1-yl)dodeca-2,4-dien-1-one]: the Ki on CB1 (setting [3]) was 2.19 ± 0.18 µM; at CB2 (setting [4]) it was 2.64 ± 0.224 µM. In addition, the “affinity towards CB1 (in words)” value on CB1 is given as “moderate affinity”. In addition, the CMC in data set [1] is more than 5 µM. Also, on FAAH, the “FAAH inhibition at 1 µM” value is <10 % of control. The compound further returned an EC50 in data set [2] of more than 10 µM. The “affinity towards CB2 (in words)” value on CB2 is “moderate affinity”.

Regarding `CCCCC/C=C\C/C=C\C/C=C\C/C=C\CCCC(=O)NCCO` [anandamide, N-arachidonoylethanolamide, reference compound], in the data set with IL-8, the “tolerogen induced chemokine IL-8” value is “inhibited”.

For orientation: Ki means the dissociation constant of the complex between target and ligand, obtained from inhibition or displacement. For orientation: EC50 means the concentration needed to bring the measured effect to its halfway point.
